Reference: the NIST ThermoML archive (doi:10.1016/j.fluid.2013.08.005)

Test: molar heat capacity at constant pressure; mn = molality of the nth substance listed, in mol/kg
Conditions: 101 kPa, Liquid, Large sample (1 g) DSC

CCCCCC[N+](C)(C)C.[Br-] [hexyltrimethylammonium bromide] + O
molar heat capacity at constant pressure [J/K/mol]
Conditions	298.15 K	303.15 K	308.15 K	313.15 K
m1 = 0.01002	75.42	75.39	75.38	75.39
m1 = 0.02406	75.57	75.55	75.54	75.55
m1 = 0.03	75.65	75.62	75.61	75.63
m1 = 0.03989	75.72	75.7	75.69	75.69
m1 = 0.045	75.7	75.68	75.67	75.7
m1 = 0.04985	75.78	75.76	75.75	75.76
m1 = 0.05497	75.82	75.79	75.78	75.8
m1 = 0.05996	75.89	75.86	75.86	75.87
m1 = 0.07507	75.97	75.95	75.94	75.95
m1 = 0.07976	76.04	76.02	76.02	76.02
m1 = 0.09	76.13	76.11	76.11	76.12
m1 = 0.09694	76.14	76.12	76.11	76.13
m1 = 0.11	76.31	76.29	76.28	76.3
m1 = 0.1199	76.37	76.35	76.35	76.36
m1 = 0.1251	76.39	76.36	76.36	76.38
m1 = 0.1301	76.52	76.51	76.51	76.52
m1 = 0.14	76.58	76.56	76.55	76.57
m1 = 0.1502	76.59	76.57	76.57	76.58
m1 = 0.1751	76.79	76.78	76.77	76.78
m1 = 0.1993	77	76.98	76.98	77
m1 = 0.2248	77.21	77.19	77.19	77.21
m1 = 0.2507	77.41	77.4	77.41	77.43
m1 = 0.2757	77.59	77.58	77.59	77.61
m1 = 0.2801	77.65	77.64	77.66	77.71
m1 = 0.2851	77.71	77.7	77.69	77.71
m1 = 0.2996	77.82	77.8	77.8	77.83
m1 = 0.3222	78.01	78	78.01	78.06
m1 = 0.3311	78.06	78.05	78.06	78.09
m1 = 0.3512	78.21	78.21	78.21	78.23
m1 = 0.4002	78.59	78.59	78.6	78.64
m1 = 0.4258	78.85	78.84	78.84	78.86
m1 = 0.4503	79	78.99	79	79.02
m1 = 0.4998	79.37	79.37	79.38	79.41
m1 = 0.5263	79.58	79.57	79.58	79.61
m1 = 0.5513	79.72	79.73	79.75	79.77
m1 = 0.5742	79.94	79.95	79.96	79.98
m1 = 0.6007	80.15	80.16	80.18	80.22
m1 = 0.6516	80.55	80.56	80.57	80.59
m1 = 0.701	80.9	80.91	80.92	80.95
m1 = 0.7517	81.28	81.29	81.31	81.33
m1 = 0.8016	81.66	81.67	81.68	81.71
m1 = 0.8842	82.28	82.29	82.31	82.33
m1 = 0.9496	82.77	82.78	82.79	82.81
m1 = 0.9915	83.01	83.02	83.05	83.08
